{"source": "patent US20040082588A1", "about": "“Methods for treating disorders of calcium homeostasis” (Schering Corporation, priority 2002, published 2004)", "key": {"[1]": {"system": "Female Rats", "assay": "One-month exploratory nephrotoxicity study in female rats: serum PTH", "format": "in vivo, rat", "conditions": "for Mean serum PTH: female rats, 180 mg/kg daily", "from_the_text": "(§1) A study was undertaken to assess the potential nephrotoxicity of the compound of Formula 1 in rats. The rats were 6 week old females weighing 120.7 to 173.5 g at dosing initiation.\n(§2) The study design is summarized below in Tables 1-3: […]"}, "[2]": {"system": "rat parathyroid glands", "assay": "Micrographic analysis (light and electron microscopy) of rat parathyroid glands", "format": "in vivo", "from_the_text": "Electron photomicrographs of the right parathyroid gland from two control rats sacrificed on Day 13 (Nos. 26F and 29F), two control rats sacrificed on Day 29 (Nos. 39F and 40F) and two Formula 1-dosed rats sacrificed on Day 29 (Nos. 76F and 77F) were examined for ultrastructural changes. […] A single rounded parathyroid epithelial cell in animal No. 77F appeared apoptotic with condensed chromatin and intact mitochondria and contained numerous vesicles similar to those previously described. The apoptotic cell is consistent with the single cell necrosis observed at the light microscopic level."}, "[3]": {"system": "Female Rats", "assay": "One-month exploratory nephrotoxicity study in female rats: urine volume and osmolality", "format": "in vivo, rat", "conditions": "for Mean urine osmolality / Mean urine volume: female rats, 180 mg/kg daily", "from_the_text": "as §1, §2"}, "[4]": {"system": "Female Rats", "assay": "One-month exploratory nephrotoxicity study in female rats: urine calcium and phosphorus excretion", "format": "in vivo, rat", "conditions": "for Mean calcium excretion / Mean phosphorus excretion: female rats, 180 mg/kg daily", "from_the_text": "as §1, §2"}, "[5]": {"system": "Female Rats", "assay": "One-month exploratory nephrotoxicity study in female rats: serum ADH", "format": "in vivo, rat", "conditions": "for Mean serum ADH: female rats, 180 mg/kg daily", "from_the_text": "as §1, §2"}, "[6]": {"system": "Ras-3T3 tumors", "conditions": "mice bearing Ras-3T3 tumors with hypercalcemia (MAH); cited from earlier work"}, "[7]": {"biological_target": "Farnesyl Protein Transferase (FPT) (Homo sapiens, UniProt P49356)", "conditions": "cited from earlier work"}, "[8]": {"conditions": "electron photomicrographs, dosed rats"}, "[9]": {"conditions": "electron photomicrographs, two dosed rats sacrificed on Day 29"}, "[10]": {"conditions": "within 6 days of dosing at 180 mg/kg, rats"}}, "data": [{"smiles": "NC(=O)N1CCC(CC(=O)N2CCC(C3c4ncc(Br)cc4CCc4cc(Cl)cc(Br)c43)CC2)CC1", "note": "(centres unmarked) [Formula 1]", "values": [{"measurement": "Mean serum PTH", "setting": "[1]; Day 2", "value": 60, "unit": "ng/mL"}, {"measurement": "Mean serum PTH", "setting": "[1]; Day 6", "value": 51, "unit": "ng/mL"}, {"measurement": "Mean serum PTH", "setting": "[1]; Day 13", "value": 68, "unit": "ng/mL"}, {"measurement": "Mean serum PTH", "setting": "[1]; Day 29", "value": 44, "unit": "ng/mL"}, {"measurement": "serum PTH (change vs control)", "setting": "[1]; rats dosed at 180 mg/kg", "value": "decrease"}, {"measurement": "rats evaluated with lower PTH serum concentrations than the control rats", "setting": "[1]; within 28 days, 180 mg/kg", "value": "5 out of 5"}, {"measurement": "changes indicating chronic stimulation of parathyroid (rough endoplasmic reticulum, Golgi apparatus)", "setting": "[2]; [8]", "value": "no changes indicating chronic stimulation"}, {"measurement": "exhaustion vacuoles in parathyroid cells", "setting": "[2]; [8]", "value": "no evidence of exhaustion vacuoles"}, {"measurement": "Ultrastructure of parathyroid chief cells: cell borders", "setting": "[2]; [9]", "value": "less conspicuous cell borders with fewer, less distinctive cytoplasmic projections"}, {"measurement": "Ultrastructure of parathyroid chief cells: cytoplasm content", "setting": "[2]; [9]", "value": "numerous, generally membrane-bound, vesicles"}, {"measurement": "number of myeloid bodies and fat globules in parathyroid cells", "setting": "[2]; [9]", "value": "minimally increased"}, {"measurement": "Microscopic evaluation of the parathyroid glands", "setting": "[2]; rats dosed with 180 mg/kg", "value": "cytoplasmic vacuolation"}, {"measurement": "Mean urine osmolality", "setting": "[3]; Day 2", "value": 646, "unit": "mOsm/kg"}, {"measurement": "Mean urine volume", "setting": "[3]; Day 2", "value": 124, "unit": "ml/kg/24 hours"}, {"measurement": "Mean urine osmolality", "setting": "[3]; Day 6", "value": 646, "unit": "mOsm/kg"}, {"measurement": "Mean urine volume", "setting": "[3]; Day 6", "value": 195, "unit": "ml/kg/24 hours"}, {"measurement": "Mean urine osmolality", "setting": "[3]; Day 13", "value": 655, "unit": "mOsm/kg"}, {"measurement": "Mean urine volume", "setting": "[3]; Day 13", "value": 177, "unit": "ml/kg/24 hours"}, {"measurement": "Mean urine osmolality", "setting": "[3]; Day 29", "value": 606, "unit": "mOsm/kg"}, {"measurement": "Mean urine volume", "setting": "[3]; Day 29", "value": 166, "unit": "ml/kg/24 hours"}, {"measurement": "condition suggested by urine osmolality, urine volume and ADH changes", "setting": "[3]; rats dosed at 180 mg/kg", "value": "nephrogenic diabetes insipidus"}, {"measurement": "urine osmolality (change vs control)", "setting": "[3]; rats dosed at 180 mg/kg", "value": "Decreases"}, {"measurement": "urine volume (change vs control)", "setting": "[3]; rats dosed at 180 mg/kg", "value": "increases"}, {"measurement": "Mean calcium excretion", "setting": "[4]; Day 2, urine", "value": 5.65, "unit": "mg/kg/24 hours"}, {"measurement": "Mean phosphorus excretion", "setting": "[4]; Day 2, urine", "value": 55.9, "unit": "mg/kg/24 hours"}, {"measurement": "Mean calcium excretion", "setting": "[4]; Day 6, urine", "value": 33, "unit": "mg/kg/24 hours"}, {"measurement": "Mean phosphorus excretion", "setting": "[4]; Day 6, urine", "value": 13.5, "unit": "mg/kg/24 hours"}, {"measurement": "Mean calcium excretion", "setting": "[4]; Day 13, urine", "value": 20.7, "unit": "mg/kg/24 hours"}, {"measurement": "Mean phosphorus excretion", "setting": "[4]; Day 13, urine", "value": 12.1, "unit": "mg/kg/24 hours"}, {"measurement": "Mean calcium excretion", "setting": "[4]; Day 29, urine", "value": 19.2, "unit": "mg/kg/24 hours"}, {"measurement": "Mean phosphorus excretion", "setting": "[4]; Day 29, urine", "value": 7.3, "unit": "mg/kg/24 hours"}, {"measurement": "calcium excretion in the urine (change vs control)", "setting": "[4]; [10]", "value": "increased"}, {"measurement": "phosphorus excretion (change vs control)", "setting": "[4]; [10]", "value": "decreased"}, {"measurement": "Mean serum ADH", "setting": "[5]; Day 2", "value": 350, "unit": "pg/mL"}, {"measurement": "Mean serum ADH", "setting": "[5]; Day 6", "value": 513, "unit": "pg/mL"}, {"measurement": "Mean serum ADH", "setting": "[5]; Day 13", "value": 547, "unit": "pg/mL"}, {"measurement": "Mean serum ADH", "setting": "[5]; Day 29, water consumption had increased at this timepoint", "value": "616^1 pg/ml"}, {"measurement": "antidiuretic hormone (ADH) concentrations (change vs control)", "setting": "[5]; rats dosed at 180 mg/kg", "value": "increases"}]}, {"smiles": "COC(=O)[C@H](CCSC)NC(=O)[C@H](/C=C\\[C@@H](/C=C/[C@@H](N)CS)C(C)C)Cc1ccccc1", "note": "[Formula B-1086]", "values": [{"measurement": "serum PTHRP levels", "setting": "[6]", "value": "reduction"}, {"measurement": "serum calcium", "setting": "[6]", "value": "normalization"}]}, {"smiles": "NC(=O)N1CCC(CC(=O)N2CCC([C@H]3c4ncc(Br)cc4CCc4cc(Cl)cc(Br)c43)CC2)CC1", "note": "[SCH66336]", "values": [{"measurement": "FPT mediated farnesylation of the Ras protein", "setting": "[7]", "value": "inhibit"}]}]}
